In publication PMC12638379, “An innovative approach to development of new pyrazolylquinolin-2-one hybrids as dual EGFR and BRAF^V600E inhibitors” (Molecular Diversity, 2025):
Read-outs that look alike come from different tables or passages of the source.

How the values were obtained:
[1] = MTT cytotoxicity on normal cell line WI-38; details: human, WI-38 normal cells, % viability
[2] = tested on: normal cell line WI-38; test: MTT cytotoxicity on normal cell line WI-38
[3] = tested on: breast cancer (T47D) cell line; test: MTT antiproliferative assay, T-47D
Method: The median inhibitory concentration (IC50) and GI50 (average IC50) against the three cancer cell lines were calculated. See Appendix B.
Cells were cultured using DMEM (Invitrogen/Life Technologies) supplemented with 10% FBS (Hyclone,), 10 ug/ml of insulin (Sigma), and 1% penicillin-streptomycin. Plate cells (cells density 1.2 – 1.8 × 10,000 cells/well) in a volume of 100µl complete growth medium + 100 ul of the tested compound per well in a 96-well plate for 24 hours before the MTT assay. In atypical experiment, one hundred micro liters of serial 10-fold diluted sterile tested compounds were added to final concentrations of […] using culture media as negative control. After 24 h of culture incubation and supernatants discarded. HOP-92 lung, MOLT-4 leukemia, and T-47D breast cell lines were trypsinized and washed with Ca2/Mg2 free PBS (pH 7.2). we removed cultures from incubator into laminar flow hood or other sterile work area. […] Each test should include a blank containing complete medium without cells. […] Add reconstituted MTT in an amount equal to 10% of the culture medium volume. Return cultures to incubator for 2-4 hours depending on cell type and maximum cell density. […] Spectrophotometrically absorbance was measured at a wavelength of 570 nm. Measure the background absorbance of multiwell plates at 690 nm and subtract from the […] measurement. Results from all experiments were recorded and the percentage of viable cells was calculated.

[4] = tested on: NCI 60 cancer cell lines; test: NCI anticancer screening over a panel of 60 cancer cells, single concentration 10 µM; type: cell-based, human; details: Homo sapiens, read-out: % Growth Inhibition (GI %)
Procedure, shortened: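 Run under the NCI Compound Evaluation Branch protocol, each compound was tested once at 10 µM. The panel comprised 60 cancer cell lines of diverse tissue origin, including leukemia, lung, colon, CNS, renal, ovarian, breast and prostate.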

[5] = molecular target: T1, EGFR (Homo sapiens, UniProt P00533); test: EGFR inhibitory assay; type: biochemical; details: for %inh: EGFR, unit not given
T1 construct: EGFR cytoplasmic domain (EGFR-CD, amino acids 645–1186); His6 (N); made in house; host or cells: Sf-9 insect cells (baculovirus)

[6] = tested on: leukemia (MOLT-4) cell line; test: MTT antiproliferative assay, MOLT-4; type: cell-based, human
Method: After 24 h of culture incubation and supernatants discarded.

T1 sequence (P00533 669-1210): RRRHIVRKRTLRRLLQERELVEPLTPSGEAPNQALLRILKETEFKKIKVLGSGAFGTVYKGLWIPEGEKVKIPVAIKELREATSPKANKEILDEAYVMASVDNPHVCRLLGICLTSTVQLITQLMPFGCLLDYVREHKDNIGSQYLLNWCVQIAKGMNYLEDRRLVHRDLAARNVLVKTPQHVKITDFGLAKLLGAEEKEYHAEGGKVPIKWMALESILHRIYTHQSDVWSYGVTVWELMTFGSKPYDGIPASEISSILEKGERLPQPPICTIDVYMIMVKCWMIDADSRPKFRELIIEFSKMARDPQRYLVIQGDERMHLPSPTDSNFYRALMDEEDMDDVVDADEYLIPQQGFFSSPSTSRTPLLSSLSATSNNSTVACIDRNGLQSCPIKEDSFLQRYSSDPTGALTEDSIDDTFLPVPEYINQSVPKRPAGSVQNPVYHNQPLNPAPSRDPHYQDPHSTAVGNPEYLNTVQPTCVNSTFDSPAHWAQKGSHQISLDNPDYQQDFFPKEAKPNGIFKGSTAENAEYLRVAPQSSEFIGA

Compound: C/C(=N\Nc1ccc(S(N)(=O)=O)cc1)c1cnn(-c2cc(=O)[nH]c3ccc(Cl)cc23)c1C [Compound 4d, (E)-4-(2-(1-(1-(6-chloro-2-oxo-1,2-dihydroquinolin-4-yl)-5-methyl-1H-pyrazol-4-yl)ethylidene)hydrazineyl)benzenesulfonamide]
- viability at 24 h, 0.4 µM ([1]; WI38, 0.4uM (log conc. -0.41)): 80.9%
- viability at 24 h, 1.6 µM ([1]; WI38, 1.6uM (log conc. 0.19)): 73.3%
- viability at 24 h, 6.3 µM ([1]; WI38, 6.3uM (log conc. 0.8)): 63.5%
- viability at 24 h, 25 µM ([1]; WI38, 25uM (log conc. 1.4)): 56.2%
- viability at 24 h, 100 µM ([1]; WI38, 100uM (log conc. 2)): 46.8%
- IC50 ([2]; Homo sapiens, read-out: Antiproliferative activity IC50 ± SEM): 62.5 ± 2.49 µM
- % viability ([2]; WI38, 0.4uM (log conc. -0.41), listed as Ws4, 0.4 µM): 80.87%
- % viability ([2]; WI38, 1.6uM (log conc. 0.19), listed as Ws4, 1.6 µM): 73.32%
- % viability ([2]; WI38, 6.3uM (log conc. 0.8), listed as Ws4, 6.3 µM): 63.52%
- % viability ([2]; WI38, 25uM (log conc. 1.4), listed as Ws4, 25 µM): 56.21%
- % viability ([2]; WI38, 100uM (log conc. 2), listed as Ws4, 100 µM): 46.82%
- viability at 0.4 µM ([3]; Homo sapiens, T47D, T-47D, MTT, 0.4uM): 77.2%
- viability at 1.6 µM ([3]; Homo sapiens, T47D, T-47D, MTT, 1.6uM): 68.1%
- viability at 6.3 µM ([3]; Homo sapiens, T47D, T-47D, MTT, 6.3uM): 56.8%
- viability at 25 µM ([3]; Homo sapiens, T47D, T-47D, MTT, 25uM): 45.8%
- viability at 100 µM ([3]; Homo sapiens, T47D, T-47D, MTT, 100uM): 33.6%
- IC50 ([3]; Homo sapiens, T47D, read-out: Antiproliferative activity IC50 ± SEM, T-47D, MTT): 13.8 ± 0.48 µM
- % viability ([3]; T-47D, MTT, 1.6uM, listed as Ws4, 1.6 µM): 68.09%
- % viability ([3]; T-47D, MTT, 6.3uM, listed as Ws4, 6.3 µM): 56.85%
- % viability ([3]; T-47D, MTT, 25uM, listed as Ws4, 25 µM): 45.78%
- % viability ([3]; T-47D, MTT, 100uM, listed as Ws4, 100 µM): 33.56%
- inhibition at 10 µM ([4]; 786-0, Renal cancer 786-0, 10 μM): 14.4%
- inhibition at 10 µM ([4]; A498, Renal cancer A498, 10 μM): < 5%
- inhibition at 10 µM ([4]; A549, Non-small cell lung cancer A549/ATCC, 10 μM): < 5%
- inhibition at 10 µM ([4]; ACHN, Renal cancer ACHN, 10 μM): 14.1%
- inhibition at 10 µM ([4]; BT-549, Breast cancer BT-549, 10 μM): 56.3%
- inhibition at 10 µM ([4]; CAKI-1, Renal cancer CAKI-1, 10 μM): 21.5%
- inhibition at 10 µM ([4]; CCRF-CEM, Leukemia CCRF-CEM, 10 μM): 52.2%
- inhibition at 10 µM ([4]; COLO 205, Colon cancer COLO 205, 10 μM): < 5%
- inhibition at 10 µM ([4]; DU-145, Prostate cancer DU-145, 10 μM): 10.9%
- inhibition at 10 µM ([4]; EKVX, Non-small cell lung cancer EKVX, 10 μM): 10.1%
- inhibition at 10 µM ([4]; HCC 2998, Colon cancer HCC-2998, 10 μM): < 5%
- inhibition at 10 µM ([4]; HCT-15, Colon cancer HCT-15, 10 μM): < 5%
- inhibition at 10 µM ([4]; HCT-116, Colon cancer HCT-116, 10 μM): 19.1%
- inhibition at 10 µM ([4]; HL-60, Leukemia HL-60(TB), 10 μM): < 5%
- inhibition at 10 µM ([4]; HOP-62, Non-small cell lung cancer HOP-62, 10 μM): 24.6%
- inhibition at 10 µM ([4]; HOP-92, Non-small cell lung cancer HOP-92, 10 μM): < 5%
- inhibition at 10 µM ([4]; HT-29, Colon cancer HT29, 10 μM): < 5%
- inhibition at 10 µM ([4]; Hs-578T, Breast cancer HS 578T, 10 μM): 36.3%
- inhibition at 10 µM ([4]; IGROV-1, Ovarian cancer IGROV1, 10 μM): 14.6%
- inhibition at 10 µM ([4]; K562, Leukemia K-562, 10 μM): 29.7%
- inhibition at 10 µM ([4]; KM12, Colon cancer KM12, 10 μM): 16.7%
- inhibition at 10 µM ([4]; LOX IMVI, Melanoma LOX IMVI, 10 μM): 29%
- inhibition at 10 µM ([4]; Leukemia SR, 10 μM): 71.6%
- inhibition at 10 µM ([4]; MCF7, Breast cancer MCF7, 10 μM): 36.3%
- inhibition at 10 µM ([4]; MDA-MB-231, Breast cancer MDA-MB-231/ATCC, 10 μM): 51.7%
- inhibition at 10 µM ([4]; MDA-MB-435, Melanoma MDA-MB-435, 10 μM): 27.3%
- inhibition at 10 µM ([4]; MDA-MB-468, Breast cancer MDA-MB-468, 10 μM): 47.2%
- inhibition at 10 µM ([4]; MOLT-4, Leukemia MOLT-4, 10 μM): 34.3%
- inhibition at 10 µM ([4]; Melanoma M14, 10 μM): 20.7%
- inhibition at 10 µM ([4]; Melanoma MALM-3M, 10 μM): 44.5%
- inhibition at 10 µM ([4]; NCI-H23, Non-small cell lung cancer NCI-H23, 10 μM): 16.9%
- inhibition at 10 µM ([4]; NCI-H226, Non-small cell lung cancer NCI-H226, 10 μM): 17.6%
- inhibition at 10 µM ([4]; NCI-H322M, Non-small cell lung cancer NCI-H322M, 10 μM): 8.41%
- inhibition at 10 µM ([4]; NCI-H460, Non-small cell lung cancer NCI-H460, 10 μM): 6.52%
- inhibition at 10 µM ([4]; NCI-H522, Non-small cell lung cancer NCI-H522, 10 μM): 44.8%
- inhibition at 10 µM ([4]; NCI/ADR-RES, Ovarian cancer NCI/ADR-RES, 10 μM): 5.85%
- inhibition at 10 µM ([4]; OVCAR-3, Ovarian cancer OVCAR-3, 10 μM): 23.4%
- inhibition at 10 µM ([4]; OVCAR-4, Ovarian cancer OVCAR-4, 10 μM): 24.2%
- inhibition at 10 µM ([4]; OVCAR-5, Ovarian cancer OVCAR-5, 10 μM): 11.5%
- inhibition at 10 µM ([4]; OVCAR-8, Ovarian cancer OVCAR-8, 10 μM): 6.15%
- inhibition at 10 µM ([4]; Prostate cancer PC-3, 10 μM): 18.5%
- inhibition at 10 µM ([4]; RPMI-8226, Leukemia RPMI-8226, 10 μM): 15.7%
- inhibition at 10 µM ([4]; RXF 393, Renal cancer RXF 393, 10 μM): < 5%
- inhibition at 10 µM ([4]; SF-268, CNS Cancer SF-268, 10 μM): 28.7%
- inhibition at 10 µM ([4]; SF-295, CNS Cancer SF-295, 10 μM): 9.48%
- inhibition at 10 µM ([4]; SF-539, CNS Cancer SF-539, 10 μM): 33%
- inhibition at 10 µM ([4]; SK-MEL-2, Melanoma SK-MEL-2, 10 μM): 27.2%
- inhibition at 10 µM ([4]; SK-MEL-5, Melanoma SK-MEL-5, 10 μM): 21.8%
- inhibition at 10 µM ([4]; SK-MEL-28, Melanoma SK-MEL-28, 10 μM): 24.7%
- inhibition at 10 µM ([4]; SK-OV-3, Ovarian cancer SK-OV-3, 10 μM): 24.1%
- inhibition at 10 µM ([4]; SN12C, Renal cancer SN12C, 10 μM): 27%
- inhibition at 10 µM ([4]; SNB-19, CNS Cancer SNB-19, 10 μM): 24.9%
- inhibition at 10 µM ([4]; SNB-75, CNS Cancer SNB-75, 10 μM): 35.4%
- inhibition at 10 µM ([4]; SW-620, Colon cancer SW-620, 10 μM): 7.13%
- inhibition at 10 µM ([4]; T47D, Breast cancer T-47D, 10 μM): 54%
- inhibition at 10 µM ([4]; TK-10, Renal cancer TK-10, 10 μM): < 5%
- inhibition at 10 µM ([4]; U-251, CNS Cancer U251, 10 μM): 26.3%
- inhibition at 10 µM ([4]; UACC-62, Melanoma UACC-62, 10 μM): 41.8%
- inhibition at 10 µM ([4]; UACC-257, Melanoma UACC-257, 10 μM): 4.52%
- inhibition at 10 µM ([4]; UO-31, Renal cancer UO-31, 10 μM): 37.7%
- %inh ([5]; conc 0.01 (log -2)): 27.8%
- %inh ([5]; conc 0.1 (log -1)): 40.6%
- %inh ([5]; conc 1 (log 0)): 72.7%
- %inh ([5]; conc 10 (log 1)): 86.9%
- %inh ([5]; conc 100 (log 2)): 93.7%
- IC50 ([5]; read-out: EGFR inhibition IC50 ± SEM): 0.156 ± 0.006 µM
- viability at 0.4 µM ([6]; Homo sapiens, MOLT-4, MOLT-4, MTT, 0.4uM): 69.9%
- viability at 1.6 µM ([6]; Homo sapiens, MOLT-4, MOLT-4, MTT, 1.6uM): 62.7%
- viability at 6.3 µM ([6]; Homo sapiens, MOLT-4, MOLT-4, MTT, 6.3uM): 51.6%
- viability at 25 µM ([6]; Homo sapiens, MOLT-4, MOLT-4, MTT, 25uM): 40.9%
- viability at 100 µM ([6]; Homo sapiens, MOLT-4, MOLT-4, MTT, 100uM): 30.2%
- IC50 ([6]; Homo sapiens, MOLT-4, MTT, read-out: Antiproliferative activity IC50 ± SEM, MOLT-4): 7.24 ± 0.29 µM
- % viability ([6]; MOLT-4, MTT, 0.4uM, listed as Ws4, 0.4 µM): 69.89%
- % viability ([6]; MOLT-4, MTT, 1.6uM, listed as Ws4, 1.6 µM): 62.75%
- % viability ([6]; MOLT-4, MTT, 25uM, listed as Ws4, 25 µM): 40.91%
- % viability ([6]; MOLT-4, MTT, 100uM, listed as Ws4, 100 µM): 30.23%
